Test results taken from patent US8791267B2, “Biaryl PDE4 inhibitors for treating inflammatory, cardiovascular and CNS disorders” (Decode Genetics EHF, priority 2007, dated 2014).
Structures can show the parent of a compound that is named as a salt.

How the values were obtained:
PDE4 = PDE4 (Homo sapiens, UniProt Q08499); experiment: In-vitro assay for PDE4 enzymes, real-time enzyme-coupled spectrophotometric assay (Table 9); format: biochemical; conditions: human PDE4D; activity class, Table 9; read-out: hPDE4D
Sequence of PDE4 (Q08499 whole entry): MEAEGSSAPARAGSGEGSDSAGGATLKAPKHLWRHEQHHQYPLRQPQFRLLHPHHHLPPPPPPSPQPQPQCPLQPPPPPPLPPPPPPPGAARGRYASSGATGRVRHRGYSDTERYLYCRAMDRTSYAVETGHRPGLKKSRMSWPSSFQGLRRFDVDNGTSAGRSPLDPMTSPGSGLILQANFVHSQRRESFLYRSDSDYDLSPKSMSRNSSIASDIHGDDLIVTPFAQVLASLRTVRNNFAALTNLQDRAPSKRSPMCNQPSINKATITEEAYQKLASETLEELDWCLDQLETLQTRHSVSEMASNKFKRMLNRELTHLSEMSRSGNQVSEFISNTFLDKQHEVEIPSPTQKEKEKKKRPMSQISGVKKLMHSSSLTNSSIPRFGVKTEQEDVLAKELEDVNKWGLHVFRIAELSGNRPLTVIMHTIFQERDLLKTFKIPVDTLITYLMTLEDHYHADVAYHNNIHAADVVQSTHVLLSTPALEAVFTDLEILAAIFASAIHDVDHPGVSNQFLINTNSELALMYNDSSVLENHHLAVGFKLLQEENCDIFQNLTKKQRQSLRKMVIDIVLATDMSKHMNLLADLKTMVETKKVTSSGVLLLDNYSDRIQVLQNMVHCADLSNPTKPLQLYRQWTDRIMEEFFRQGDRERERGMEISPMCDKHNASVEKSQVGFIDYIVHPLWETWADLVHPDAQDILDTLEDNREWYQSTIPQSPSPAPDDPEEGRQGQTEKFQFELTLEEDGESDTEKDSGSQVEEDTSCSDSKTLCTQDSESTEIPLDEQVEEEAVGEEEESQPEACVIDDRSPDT

PDE4B = PDE4B (Homo sapiens, UniProt Q07343); experiment: In-vitro assay for PDE4 enzymes, real-time enzyme-coupled spectrophotometric assay, PDE4B Activity (Table 10); format: biochemical; conditions: human PDE4B (hPDE4B), enzyme-coupled spectrophotometric assay; read-out: PDE4B Activity, hPDE4B
Sequence of PDE4B (Q07343 whole entry): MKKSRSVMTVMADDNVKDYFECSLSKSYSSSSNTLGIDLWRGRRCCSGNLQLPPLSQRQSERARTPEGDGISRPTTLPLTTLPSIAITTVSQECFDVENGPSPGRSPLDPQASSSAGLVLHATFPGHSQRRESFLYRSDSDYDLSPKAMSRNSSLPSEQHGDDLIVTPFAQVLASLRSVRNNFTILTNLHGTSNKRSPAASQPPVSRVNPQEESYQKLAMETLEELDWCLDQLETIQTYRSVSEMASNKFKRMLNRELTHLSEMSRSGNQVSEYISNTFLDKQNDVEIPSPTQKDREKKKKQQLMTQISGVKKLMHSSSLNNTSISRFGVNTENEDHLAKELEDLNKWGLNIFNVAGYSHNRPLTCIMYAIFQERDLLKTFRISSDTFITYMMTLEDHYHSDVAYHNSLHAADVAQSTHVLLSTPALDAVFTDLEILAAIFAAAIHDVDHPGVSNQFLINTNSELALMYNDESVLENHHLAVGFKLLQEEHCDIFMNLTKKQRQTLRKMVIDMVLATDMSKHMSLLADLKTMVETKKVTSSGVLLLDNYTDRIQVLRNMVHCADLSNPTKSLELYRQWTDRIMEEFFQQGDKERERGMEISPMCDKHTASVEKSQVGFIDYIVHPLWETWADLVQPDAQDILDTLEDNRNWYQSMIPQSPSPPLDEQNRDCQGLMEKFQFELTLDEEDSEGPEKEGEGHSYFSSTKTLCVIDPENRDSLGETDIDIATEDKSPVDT

COc1ccc(C(O)c2ccc(F)cc2)cc1-c1cccc(-c2nnco2)c1 (centres unmarked) [P-117, (4-Fluoro-phenyl)-(6-methoxy-3′-[1,3,4]oxadiazol-2-yl-biphenyl-3-yl)-methanol]
IC50 (PDE4): < 5 µM
IC50 (PDE4B): 21 to 40 µM

COc1ccc(Nc2ccc(N)cc2)cc1-c1cccc(C(C)=O)c1 [P-260, 1-[5′-(4-Amino-phenylamino)-2′-methoxy-biphenyl-3-yl]-ethanone hydrochloride]
IC50 (PDE4): < 5 µM
IC50 (PDE4B): 5 to 20 µM

COc1ccc(Cc2ccc(N3CCOC3=O)nc2)c(F)c1-c1cccc(Cl)c1 [P-469, 3-[5-(3′-Chloro-2-fluoro-6-methoxy-biphenyl-3-ylmethyl)-pyridin-2-yl]-oxazolidin-2-one]
IC50 (PDE4): < 5 µM
IC50 (PDE4B): < 5 µM

COc1ccc(Cn2cnnc2)cc1-c1cccc([N+](=O)[O-])c1 [P-066, 4-(6-Methoxy-3′-nitro-biphenyl-3-ylmethyl)-4H-[1,2,4]triazole]
IC50 (PDE4): < 5 µM
IC50 (PDE4B): < 5 µM

O=[N+]([O-])c1cccc(-c2c(OC(F)F)ccc(Cc3ccc(F)cc3)c2F)c1 [P-116]
IC50 (PDE4): < 5 µM
IC50 (PDE4B): < 5 µM

COc1ccc(Cc2ccc(F)cc2)cc1-c1cccc([N+](=O)[O-])c1 [P-001, 5-(4-Fluoro-benzyl)-2-methoxy-3′-nitro-biphenyl]
IC50 (PDE4): < 5 µM
IC50 (PDE4B): < 5 µM

COc1ccc(Cn2cnc(CO)c2)cc1-c1cccc([N+](=O)[O-])c1 [P-154, [1-(6-Methoxy-3′-nitro-biphenyl-3-ylmethyl)-1H-imidazol-4-yl]-methanol]
IC50 (PDE4): < 5 µM
IC50 (PDE4B): < 5 µM

COc1ccc(Cc2ccc(NC(N)=O)cc2)c(F)c1-c1cccc(Br)c1 [P-347]
IC50 (PDE4): < 5 µM
IC50 (PDE4B): < 5 µM

COc1ccc(Cc2ccc(CN)c(O)c2)c(F)c1-c1cccc(Cl)c1 [P-296]
IC50 (PDE4): < 5 µM
IC50 (PDE4B): 21 to 40 µM

CCOc1ccc(Cc2ccc(NC(N)=O)cc2)c(F)c1-c1cccc(C(C)=O)c1 [P-335, [4-(3′-Acetyl-6-ethoxy-2-fluoro-biphenyl-3-ylmethyl)-phenyl]-urea]
IC50 (PDE4): < 5 µM
IC50 (PDE4B): < 5 µM

COc1ccc(Cc2ccc(N3CCC3)nc2)c(F)c1-c1cccc(Cl)c1 [P-569, 2-Azetidin-1-yl-5-(3′-chloro-2-fluoro-6-methoxy-biphenyl-3-ylmethyl)-pyridine]
IC50 (PDE4): < 5 µM
IC50 (PDE4B): < 5 µM

CN(CC(N)=O)c1ccc(Cc2ccc(OC(F)F)c(-c3cccc(Cl)c3)c2)cn1 [P-621, 2-{[5-(3′-Chloro-6-difluoromethoxy-biphenyl-3-ylmethyl)-pyridin-2-yl]-methyl-amino}-acetamide]
IC50 (PDE4): < 5 µM
IC50 (PDE4B): < 5 µM

COc1ccc(COc2ccc(N)cc2)c(F)c1-c1cccc(Br)c1 [P-199]
IC50 (PDE4): < 5 µM
IC50 (PDE4B): < 5 µM

COC(=O)Nc1nnc(Cc2ccc(OC)c(-c3cccc(Cl)c3)c2F)s1 [P-342, Methyl[5-(3′-Chloro-2-fluoro-6-methoxy-biphenyl-3-ylmethyl)-[1,3,4]thiadiazol-2-yl]-carbamate]
IC50 (PDE4): < 5 µM
IC50 (PDE4B): < 5 µM

COc1ccc(CC2CCCS2)c(F)c1-c1cccc([N+](=O)[O-])c1 (centres unmarked) [P-127]
IC50 (PDE4): < 5 µM
IC50 (PDE4B): < 5 µM

COc1ccc(Cc2ccc(=O)[nH]n2)cc1-c1cccc([N+](=O)[O-])c1 [P-009, 6-(6-Methoxy-3′-nitro-biphenyl-3-ylmethyl)-2H-pyridazin-3-one]
IC50 (PDE4): < 5 µM
IC50 (PDE4B): < 5 µM

COc1ccc(Cc2ccc(F)cc2)cc1-c1ccc2nonc2c1 [P-004, 5-[5-(4-Fluoro-benzyl)-2-methoxy-phenyl]-benzo[1,2,5]oxadiazole]
IC50 (PDE4): < 5 µM
IC50 (PDE4B): 5 to 20 µM

CCOc1ccc(Cc2ccc(N)cc2)c(F)c1-c1cccc(C(C)=O)c1 [P-334, 1-[3′-(4-Amino-benzyl)-6′-ethoxy-2′-fluoro-biphenyl-3-yl]-ethanone; hydrochloride]
IC50 (PDE4): < 5 µM
IC50 (PDE4B): < 5 µM

[2H]C(O)(c1ccc([N+](=O)[O-])cc1)c1ccc(OC)c(-c2cccc(Cl)c2)c1 (centres unmarked) [P-583]
IC50 (PDE4): < 5 µM
IC50 (PDE4B): 5 to 20 µM

COc1ccc(Cc2ccc(S(N)(=O)=O)cc2)c(F)c1-c1cccc(C(C)=O)c1 [P-304]
IC50 (PDE4): < 5 µM
IC50 (PDE4B): < 5 µM

COc1ccc(Cc2ccc(N)nc2)c(F)c1-c1cccc(C(C)=O)c1 [P-277, 1-[3′-(6-Amino-pyridin-3-ylmethyl)-2′-fluoro-6′-methoxy-biphenyl-3-yl]-ethanone]
IC50 (PDE4): < 5 µM
IC50 (PDE4B): < 5 µM

COc1ccc(Cc2ccc(NC(N)=O)cc2)c(F)c1-c1cccc(C#N)c1 [P-413]
IC50 (PDE4): < 5 µM
IC50 (PDE4B): < 5 µM

COc1ccc(Cc2cnc(N)nc2)c(F)c1-c1cccc(C#N)c1 [P-395, 3′-(2-Amino-pyrimidin-5-ylmethyl)-2′-fluoro-6′-methoxy-biphenyl-3-carbonitrile]
IC50 (PDE4): < 5 µM
IC50 (PDE4B): < 5 µM

COc1ccc(Cn2ccnc2-c2cccnc2)c(F)c1-c1cccc(Cl)c1 [P-549, 3-[1-(3′-Chloro-2-fluoro-6-methoxy-biphenyl-3-ylmethyl)-1H-imidazol-2-yl]-pyridine hydrochloride salt]
IC50 (PDE4): < 5 µM
IC50 (PDE4B): 5 to 20 µM

NC(=O)Nc1ccc(Cc2ccc(OC(F)F)c(-c3cccc(Cl)c3)c2)cc1 [P-420]
IC50 (PDE4): < 5 µM
IC50 (PDE4B): < 5 µM

COc1ccc(Cc2ccc(N)nc2)nc1-c1cccc(Cl)c1 [P-379, 5-[6-(3-chloro-phenyl)-5-methoxy-pyridin-2-ylmethyl]-pyridin-2-ylamine]
IC50 (PDE4): < 5 µM
IC50 (PDE4B): < 5 µM

COc1ccc(Cc2ccc(NC(N)=O)cc2)cc1-c1cccc(Cl)c1 [P-378, [4-(3′-chloro-6-methoxy-biphenyl-3-ylmethyl)-phenyl]-urea]
IC50 (PDE4): < 5 µM
IC50 (PDE4B): < 5 µM

O=[N+]([O-])c1cccc(-c2cc(Cc3ccc(F)cc3)ccc2O)c1 [P-494, 5-(4-Fluoro-benzyl)-3′-nitro-biphenyl-2-ol]
IC50 (PDE4): < 5 µM
IC50 (PDE4B): < 5 µM

CN1CC[C@@H](Oc2ccc(Cc3ccc(NC(N)=O)cc3)cc2-c2cccc(Cl)c2)C1 [P-565, {4-[3′-Chloro-6-((R)-1-methyl-pyrrolidin-3-yloxy)-biphenyl-3-ylmethyl]-phenyl}-urea]
IC50 (PDE4): 5 to 20 µM
IC50 (PDE4B): 21 to 40 µM

COc1ccc(Cc2ccc(C(N)=O)cc2)cc1-c1cccc(Cl)c1 [P-240, 4-(3′-Chloro-6-methoxy-biphenyl-3-ylmethyl)-benzamide]
IC50 (PDE4): < 5 µM
IC50 (PDE4B): 5 to 20 µM

COc1ccc(Cc2ccc(F)cc2)cc1-c1cccc(C(C)=O)c1 [P-140, 1-[5′-(4-Fluoro-benzyl)-2′-methoxy-biphenyl-3-yl]-ethanone]
IC50 (PDE4): < 5 µM
IC50 (PDE4B): < 5 µM

CCNC(=O)Nc1ccc(Cc2ccc(OC)c(-c3cccc(Cl)c3)c2F)c[n+]1[O-] [P-397, 1-[5-(3′-Chloro-2-fluoro-6-methoxy-biphenyl-3-ylmethyl)-1-oxy-pyridin-2-yl]-3-ethyl-urea]
IC50 (PDE4): < 5 µM
IC50 (PDE4B): < 5 µM

COc1ccc(Cn2ccc(N)cc2=O)cc1-c1cccc([N+](=O)[O-])c1 [P-215, 4-Amino-1-(6-methoxy-3′-nitro-biphenyl-3-ylmethyl)-1H-pyridin-2-one]
IC50 (PDE4): 5 to 20 µM
IC50 (PDE4B): 5 to 20 µM

COc1ccc(COc2ccnc(Cl)c2)c(F)c1-c1cccc(Cl)c1 [P-604]
IC50 (PDE4): < 5 µM
IC50 (PDE4B): < 5 µM

COc1ccc(Cc2cccc(O)c2)cc1-c1cccc([N+](=O)[O-])c1 [P-102, 3-(6-Methoxy-3′-nitro-biphenyl-3-ylmethyl)-phenol]
IC50 (PDE4): < 5 µM
IC50 (PDE4B): < 5 µM

COc1ccc(Cc2ccc(NC(C)=O)cc2)c(F)c1-c1cccc(Cl)c1 [P-228]
IC50 (PDE4): < 5 µM
IC50 (PDE4B): < 5 µM

COc1ccc(Cc2ccc(CNC(N)=O)c(F)c2)c(F)c1-c1cccc(Cl)c1 [P-287]
IC50 (PDE4): < 5 µM
IC50 (PDE4B): < 5 µM

COc1ccc(Cc2ccc(NC(N)=O)cc2)c(F)c1-c1cccc([N+](=O)[O-])c1 [P-181]
IC50 (PDE4): < 5 µM
IC50 (PDE4B): < 5 µM

CCNC(=O)Nc1nc(Cc2ccc(OC)c(-c3cccc(Cl)c3)c2F)cs1 [P-346, 1-[4-(3′-Chloro-2-fluoro-6-methoxy-biphenyl-3-ylmethyl)-thiazol-2-yl]-3-ethyl-urea]
IC50 (PDE4): < 5 µM
IC50 (PDE4B): 5 to 20 µM

COc1ccc(Cn2ccc(C(N)=O)cc2=O)cc1-c1cccc([N+](=O)[O-])c1 [P-207, 1-(6-Methoxy-3′-nitro-biphenyl-3-ylmethyl)-2-oxo-1,2-dihydro-pyridine-4-carboxylic acid amide]
IC50 (PDE4): 5 to 20 µM
IC50 (PDE4B): < 5 µM

COc1ccc(Cc2cccc(NC(C)=O)c2)c(F)c1-c1cccc(Cl)c1 [P-233]
IC50 (PDE4): < 5 µM
IC50 (PDE4B): < 5 µM

COc1ccc(Cc2ccc(N)nc2)cc1-c1cccc([N+](=O)[O-])c1 [P-111]
IC50 (PDE4): < 5 µM
IC50 (PDE4B): < 5 µM

COc1ccc(Cn2cncn2)cc1-c1ccc2c(c1)OCO2 [P-044, 1-(3-Benzo[1,3]dioxol-5-yl-4-methoxy-benzyl)-1H-[1,2,4]triazole]
IC50 (PDE4): < 5 µM
IC50 (PDE4B): < 5 µM

COc1ccc(Cc2csc(N)n2)c(F)c1-c1cccc(Cl)c1 [P-341, 4-(3′-Chloro-2-fluoro-6-methoxy-biphenyl-3-ylmethyl)-thiazol-2-ylamine]
IC50 (PDE4): < 5 µM
IC50 (PDE4B): < 5 µM

CCNC(=O)Nc1ccc(Cc2ccc(OC)c(-c3cccc(-c4nnn[nH]4)c3)c2F)cn1 [P-513, 1-Ethyl-3-{5-[2-fluoro-6-methoxy-3′-(1H-tetrazol-5-yl)-biphenyl-3-ylmethyl]-pyridin-2-yl}-urea]
IC50 (PDE4): 5 to 20 µM
IC50 (PDE4B): 21 to 40 µM

NC(=O)Nc1ccc(Cc2ccc(OC(F)F)c(-c3cccc([N+](=O)[O-])c3)c2F)cc1 [P-316]
IC50 (PDE4): < 5 µM
IC50 (PDE4B): < 5 µM

COc1ccc(Cn2ccnc2)cc1-c1ccc2nonc2c1 [P-006, 5-(5-Imidazol-1-ylmethyl-2-methoxy-phenyl)-benzo[1,2,5]oxadiazole]
IC50 (PDE4): < 5 µM
IC50 (PDE4B): < 5 µM

COc1ccc(Cc2ccc(CNC(N)=O)nc2)c(F)c1-c1cccc(Cl)c1 [P-368, [5-(3′-Chloro-2-fluoro-6-methoxy-biphenyl-3-ylmethyl)-pyridin-2-ylmethyl]-urea]
IC50 (PDE4): < 5 µM
IC50 (PDE4B): < 5 µM

COc1ccc(Cc2ccc(NC(C)=O)nc2)c(F)c1-c1cccc(C(C)=O)c1 [P-345]
IC50 (PDE4): < 5 µM
IC50 (PDE4B): < 5 µM
